The text below walks through data of patent US11739070B2, “C5A receptor modulators” (IDORSIA PHARMACEUTICALS LTD, priority 2018, dated 2023).

Structures are written as SMILES.

As a reminder, the IC50 is the point on the concentration scale where inhibition reaches its midpoint.

The target of the assay is T1, C5AR1 (Homo sapiens, UniProt P21730).
T1 construct: host or cells: CHO-K1
T1 sequence (P21730 1-350): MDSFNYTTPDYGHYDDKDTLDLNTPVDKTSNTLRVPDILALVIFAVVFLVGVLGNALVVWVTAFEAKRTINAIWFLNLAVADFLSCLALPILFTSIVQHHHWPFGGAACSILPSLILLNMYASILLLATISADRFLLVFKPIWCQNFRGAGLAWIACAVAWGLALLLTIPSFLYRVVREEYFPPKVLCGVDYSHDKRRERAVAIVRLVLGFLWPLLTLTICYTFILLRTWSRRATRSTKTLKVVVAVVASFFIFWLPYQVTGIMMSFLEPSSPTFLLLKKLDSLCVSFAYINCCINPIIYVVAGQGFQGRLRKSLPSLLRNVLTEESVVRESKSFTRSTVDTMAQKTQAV
The assay is described as follows: hC5a DISCO IC50 assay (PathHunter beta-arrestin, antagonist mode). The note with it: CHO-K1 C5AR1 beta-arrestin cell line; antagonist vs 1-10 nM C5a agonist; geometric mean values; read-out: C5aR IC50. In kind it is cell-based. The essentials: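 Antagonist added first, then 1-10 nM C5a agonist; cells incubated 1.5 h at 37 °C. Beta-arrestin signal developed with PathHunter detection reagent, 45 min at RT. IC50 in nmol/l from serial antagonist dilutions, reported as geometric mean of several measurements.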
Take `COc1cccc2c1n(Cc1ccccc1C(F)(F)F)c(=O)n2[C@H]1CN(c2c(C)cccc2F)C[C@@H]1C` (relative stereo) [Example 198, 1-[(3R*,4S*)-1-(2-Fluoro-6-methyl-phenyl)-4-methyl-pyrrolidin-3-yl]-4-methoxy-3-(2-trifluoromethyl-benzyl)-1,3-dihydro-benzoimidazol-2-one]: the IC50 was determined as 15 nM.

On to `COc1cccc2c1n(Cc1ccccc1C(F)(F)F)c(=O)n2[C@@H]1CCN(c2c(F)cccc2C(C)(C)O)C1` [Example 91, 1-{(R)-1-[2-Fluoro-6-(1-hydroxy-1-methyl-ethyl)-phenyl]-pyrrolidin-3-yl}-4-methoxy-3-(2-trifluoromethyl-benzyl)-1,3-dihydro-benzoimidazol-2-one], for which the IC50 was 70 nM.

Regarding `Cc1cccc(F)c1N1CC[C@@H](n2c(=O)n(Cc3ccccc3C(F)(F)F)c3c(O)cccc32)C1` [Example 40, 1-[(R)-1-(2-Fluoro-6-methyl-phenyl)-pyrrolidin-3-yl]-4-hydroxy-3-(2-trifluoromethyl-benzyl)-1,3-dihydro-benzoimidazol-2-one], the half-maximal inhibitory concentration (IC50) stood at 6 nM.

`Cc1cccc(F)c1N1CC[C@@H](n2c(=O)n(Cc3ccccc3C(F)(F)F)c3c(OCC4COC(C)(C)O4)cccc32)C1` (stereo partly drawn) [Example 151, 4-(2,2-Dimethyl-[1,3]dioxolan-4-ylmethoxy)-1-[(R)-1-(2-fluoro-6-methyl-phenyl)-pyrrolidin-3-yl]-3-(2-trifluoromethyl-benzyl)-1,3-dihydro-benzoimidazol-2-one]: the IC50 worked out at 31 nM.

Take `COc1cccc2c1n(Cc1ccccc1C(F)(F)F)c(=O)n2[C@@H]1CCN(c2c(F)cccc2Br)C1` [Example 156, 1-[(R)-1-(2-Bromo-6-fluoro-phenyl)-pyrrolidin-3-yl]-4-methoxy-3-(2-trifluoromethyl-benzyl)-1,3-dihydro-benzoimidazol-2-one]: the IC50 came out at 21 nM.

On to `Cc1cccc(F)c1N1CC[C@@H](n2c(=O)n(Cc3ccccc3C(F)(F)F)c3c(OCCN(C)C)nccc32)C1` [Example 120, 4-(2-Dimethylamino-ethoxy)-1-[(R)-1-(2-fluoro-6-methyl-phenyl)-pyrrolidin-3-yl]-3-(2-trifluoromethyl-benzyl)-1,3-dihydro-imidazo[4,5-c]pyridin-2-one], for which the half-maximal inhibitory concentration (IC50) is 659 nM.

As for `COc1ccccc1Cn1c(=O)n([C@@H]2CCN(C(=O)OC(C)(C)C)C2)c2cccc(OC)c21` [Example 65, (R)-3-[4-Methoxy-3-(2-methoxy-benzyl)-2-oxo-2,3-dihydro-benzoimidazol-1-yl]-pyrrolidine-1-carboxylic acid tert-butyl ester], the IC50 is 396 nM.

In the case of `COc1cccc2c1n(Cc1ccccc1C(F)(F)F)c(=O)n2C1CCN(Cc2ccc(Cl)cc2Cl)CC1` [Example 5, 1-[1-(2,4-Dichloro-benzyl)-piperidin-4-yl]-4-methoxy-3-(2-trifluoromethyl-benzyl)-1,3-dihydro-benzoimidazol-2-one], the IC50 was determined as 284 nM.

In the case of `COc1cccc2c1n(Cc1ccccc1C(F)(F)F)c(=O)n2[C@@H]1CCN(c2nnc(C(C)C)o2)C1` [Example 69, 1-[(R)-1-(5-Isopropyl-[1,3,4]oxadiazol-2-yl)-pyrrolidin-3-yl]-4-methoxy-3-(2-trifluoromethyl-benzyl)-1,3-dihydro-benzoimidazol-2-one], the IC50 stood at 2820 nM.

Consider `COc1ccccc1Cn1c(=O)n([C@@H]2CCN(c3c(F)cccc3C#N)C2)c2cccc(OC)c21` [Example 109, 3-Fluoro-2-{(R)-3-[4-methoxy-3-(2-methoxy-benzyl)-2-oxo-2,3-dihydro-benzoimidazol-1-yl]-pyrrolidin-1-yl}-benzonitrile], for which the IC50 stood at 61 nM.

Turning to `COc1cccc2c1n(Cc1ccccc1C(F)(F)F)c(=O)n2[C@@H]1CCN(c2c(F)cccc2CN2CCC(OC)CC2)C1` [Example 137, 1-{(R)-1-[2-Fluoro-6-(4-methoxy-piperidin-1-ylmethyl)-phenyl]-pyrrolidin-3-yl}-4-methoxy-3-(2-trifluoromethyl-benzyl)-1,3-dihydro-benzoimidazol-2-one], the IC50 came to 133 nM.
